# In patent US6610883B1, “Compounds having selective activity for retinoid X receptors, and means for modulation of processes mediated by retinoid X receptors” (Ligand Pharmaceuticals, Inc., priority 1992, dated 2003):
# Where two headings read alike, the source gives them in different places.
# How the values were obtained:
# Rhino mice utriculi = experiment: Comedolytic test on Rhino mice; conditions: 0.1% solution, topical
# RXR = experiment: apoA1 "A" site reporter co-transfection in HepG-2 cells, RXR; assay type: cell-based
# [1] = test system: RAR subfamily (RARα, RARβ, RARγ); experiment: Co-transfection assay, dose response profiles, RAR subfamily; assay type: cell-based; conditions: in words
# From the text: (§1) The co-transfection assay provides a mechanism to evaluate the ability of a compound to modulate the transcription response initiated by an intracellular receptor. […] Berger, et al., J. Steroid Biochem Molec.
# (§2) Briefly, the co-transfection assay involves the introduction of two plasmids by transient transfection into a retinoid receptor-negative mammalian cell background. The first plasmid contains a retinoid receptor cDNA and directs constitutive expression of the encoded receptor. The second plasmid contains a cDNA that encodes for a readily quantifiable protein, e.g., firefly luciferase or chloramphenicol acetyl transferase (CAT), under control of a promoter containing a retinoid acid response element, which confers retinoid dependence on the transcription of the reporter. In this co-transfection assay, all retinoid receptors respond to all-trans-retinoic acid in a similar fashion. This assay can be used to accurately measure efficacy and potency of retinoic acid and synthetic retinoids as ligands that interact with the individual retinoid receptor subtypes.
# (§3) Accordingly, synthetic retinoid compounds of the current invention were evaluated for their interaction with retinoid receptor subtypes using the co-transfection assay in which CV-1 cells were co-transfected with one of the retinoid receptor subtypes, a reporter construct, and an internal control to allow normalization of the response for transfection efficiency. The following example is illustrative.
# Co-transfection Assay In CV-1 Cells: A monkey kidney cell line, CV-1, was used in the cis-trans assay. Cells were transfected with two plasmids. […] The cis-vector contains an easily assayable gene product, in this case the firefly luciferase, coupled to a retinoid-responsive promoter, i.e., an RARE or RXRE. Addition of retinoic acid or an appropriate synthetic retinoid results in the formation of a retinoid-RAR or -RXR complex that activates the expression of luciferase gene, causing light to be emitted from cell extracts. […]
# skin of Rhino mice = experiment: Skin irritation in Rhino mice; assay type: in vivo; conditions: compared with 9-cis- or all-trans-retinoic acid
# RAR = experiment: apoA1 "A" site reporter co-transfection in HepG-2 cells, RAR
# [2] = test system: transglutaminase activity in the HL60 cells; experiment: Transglutaminase induction in HL60 cells
# RXRα/PPAR = experiment: Co-transfection of RXRα and PPAR in HepG2 cells; assay type: cell-based
# From the text: Specifically, peroxisome proliferator-activated receptor (PPAR) is a member of the intracellular receptor super family that plays a role in the modulation of lipid homeostasis. […] These agents, called peroxisome proliferators, have been used in man as hypolipidemic agents.
# [3] = rats
# Protocol: Male Sprague-Dawley rats (160-200 gram) were obtained from Harlan. Animals were fed standard laboratory diets (Harlan/Teklad) and kept in an environmentally controlled animal house with a light period lasting from 6 a.m. to 6 p.m. Animals were treated with drugs prepared as suspensions in olive oil.
# […]
# Plasma total cholesterol was measured enzymatically utilizing Boeringer Mannheim Diagnostics High Performance Cholesterol Methods with an ABBOTT VP Bichromatic Analyzer. cholesterol was measured after preparation of the HDL-containing fraction by heparin-manganese precipitation of plasma. HDL-cholesterol in this fraction was estimated as mentioned earlier. All HDL separations were checked for contamination by other lipoproteins with agarose gel electrophoresis.
# apoA1 = experiment: Circulating apoA1 in rats (Western Blot); conditions: 3 mg/kg orally, daily for four days
# From the text: Serum samples were taken and analyzed by Western Blot using antisera specific to rat apoA1.
# [4] = test system: RPMI18226, a multiple myeloma; experiment: Cell growth of RPMI18226; assay type: cell-based, human; conditions: RPMI18226, cell number and growth in semi-solid medium
# From the text: (§4) The effects on growth of these cells were monitored by evaluation of cell number, and also by evaluation of growth in semi-solid medium for the RPMI18226 cell line. […] The therapeutic index is defined as the ratio of efficacy to toxicity of a compound.
# HL60 cells [5] = experiment: HL60 differentiation (NBT reduction); assay type: cell-based; conditions: for EC50: Homo sapiens
# [6] = test system: ME180, a squamous cell carcinoma; experiment: Cell growth of ME180; assay type: cell-based, human; conditions: ME180, cell number
# From the text: as §4
# RXRβ = biological target: T1, RXRβ (Mus musculus, UniProt P28704); experiment: Co-transfection (cis-trans) assay in CV-1 cells, RXRβ; assay type: cell-based; conditions: RXRβ
# T1 construct: expressed in transfected cells; host or cells: CV-1 (monkey kidney)
# T1 sequence (P28704 1-520): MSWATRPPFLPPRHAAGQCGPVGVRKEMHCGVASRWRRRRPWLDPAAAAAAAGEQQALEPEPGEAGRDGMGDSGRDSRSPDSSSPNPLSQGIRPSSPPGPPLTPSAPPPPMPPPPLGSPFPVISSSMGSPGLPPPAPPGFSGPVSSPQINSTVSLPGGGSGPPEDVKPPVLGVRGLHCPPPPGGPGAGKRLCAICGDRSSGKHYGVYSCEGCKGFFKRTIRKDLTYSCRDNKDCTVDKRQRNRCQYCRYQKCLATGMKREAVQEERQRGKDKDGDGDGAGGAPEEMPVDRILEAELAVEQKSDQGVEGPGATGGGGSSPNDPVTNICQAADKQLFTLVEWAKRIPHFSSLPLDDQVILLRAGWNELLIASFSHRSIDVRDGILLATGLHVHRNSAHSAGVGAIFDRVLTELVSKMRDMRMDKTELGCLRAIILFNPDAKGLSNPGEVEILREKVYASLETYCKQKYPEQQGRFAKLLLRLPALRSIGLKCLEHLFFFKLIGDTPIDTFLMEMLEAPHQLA
# From the text: as §1, §2, §3
# (§5) Retinoids: All-tans-retinoic acid (RA) and 13-cis-retinoic acid (13-cis-RA) were obtained from Sigma. […] Retinoids were dissolved in dimethylsulfoxide for use in the transcriptional activation assays.
# (§6) Co-transfection Assay In CV-1 Cells: A monkey kidney cell line, CV-1, was used in the cis-trans assay. Cells were transfected with two plasmids. […] The cis-vector contains an easily assayable gene product, in this case the firefly luciferase, coupled to a retinoid-responsive promoter, i.e., an RARE or RXRE. Addition of retinoic acid or an appropriate synthetic retinoid results in the formation of a retinoid-RAR or -RXR complex that activates the expression of luciferase gene, causing light to be emitted from cell extracts. The level of luciferase activity is directly proportional to the effectiveness of the retinoid-receptor complex in activating gene expression. This sensitive and reproducible co-transfection approach permits the identification of retinoids that interact with the different receptor isoforms.
# (§7) Cells were cultured in DMEM supplemented with 10% charcoal resin-stripped fetal bovine serum, and experiments were conducted in 96-well plates. […] Cells were transfected for 6 h and then washed to remove the precipitate. The cells were then incubated for 36 h with or without retinoid. After the transfection, all subsequent steps were performed on a Beckman Biomek Automated Workstation. […] All determinations were performed in triplicate in two independent experiments and were normalized for transfection efficiency by using β-galactosidase as the internal control. […] Efficacy values less than 5% are not statistically different than the 0% background.
# [7] = test system: RXR subfamily (RXRα, RXRβ, RXRγ)
# From the text: as §1
# as §2, with “This assay can be used to accurately measure efficacy and potency of retinoic acid and synthetic retinoids as ligands that interact with the individual retinoid receptor subtypes.” left out
# as §3, with “The following example is illustrative.” left out
# RXRα = biological target: T2, RXRα (Homo sapiens, UniProt P19793); experiment: Co-transfection (cis-trans) assay in CV-1 cells, RXRα; assay type: cell-based; design: Emax: dose or concentration left out as unconfirmed
# T2 construct: The first plasmid contains a retinoid receptor cDNA and directs constitutive expression of the encoded receptor; expressed in transfected cells; host or cells: CV-1 (monkey kidney)
# T2 sequence (P19793 1-462): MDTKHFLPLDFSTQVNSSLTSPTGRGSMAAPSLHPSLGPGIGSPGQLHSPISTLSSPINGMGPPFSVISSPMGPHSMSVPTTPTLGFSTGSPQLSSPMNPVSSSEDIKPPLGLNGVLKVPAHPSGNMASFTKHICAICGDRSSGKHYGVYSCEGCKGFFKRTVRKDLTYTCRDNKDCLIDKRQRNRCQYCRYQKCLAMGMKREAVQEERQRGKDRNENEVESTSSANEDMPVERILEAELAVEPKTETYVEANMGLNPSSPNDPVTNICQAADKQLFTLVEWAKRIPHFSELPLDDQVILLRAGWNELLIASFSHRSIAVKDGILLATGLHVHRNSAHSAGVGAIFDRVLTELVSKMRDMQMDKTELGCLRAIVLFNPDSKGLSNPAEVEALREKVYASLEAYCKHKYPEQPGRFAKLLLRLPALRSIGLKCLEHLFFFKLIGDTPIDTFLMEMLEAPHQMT
# From the text: as §1, §2, §3, §5, §6, §7
# RXRγ = biological target: T3, RXRγ (Mus musculus, UniProt P28705); experiment: Co-transfection (cis-trans) assay in CV-1 cells, RXRγ; assay type: cell-based
# T3 construct: expressed in transfected cells; host or cells: CV-1 (monkey kidney)
# T3 sequence (P28705 1-463): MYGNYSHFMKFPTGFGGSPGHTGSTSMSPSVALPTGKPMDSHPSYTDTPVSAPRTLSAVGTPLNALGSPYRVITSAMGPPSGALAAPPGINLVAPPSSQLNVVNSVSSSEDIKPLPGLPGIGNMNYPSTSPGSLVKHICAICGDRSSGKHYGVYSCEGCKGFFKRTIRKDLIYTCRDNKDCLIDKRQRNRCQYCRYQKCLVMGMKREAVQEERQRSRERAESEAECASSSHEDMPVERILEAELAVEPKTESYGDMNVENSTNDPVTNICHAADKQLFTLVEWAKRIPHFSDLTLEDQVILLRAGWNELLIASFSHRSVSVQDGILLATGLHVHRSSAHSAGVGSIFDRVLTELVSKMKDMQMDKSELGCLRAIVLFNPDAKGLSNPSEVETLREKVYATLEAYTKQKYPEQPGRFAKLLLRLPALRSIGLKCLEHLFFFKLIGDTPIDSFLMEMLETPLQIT
# From the text: as §1, §2, §3, §5, §6, §7
# [8] = test system: myeloma cell line (RPMI 8226); experiment: Thymidine incorporation in myeloma cell line RPMI 8226; assay type: cell-based
# From the text: This assay examines the incorporation of radiolabeled thymidine into DNA, and by determining the ability of a compound to inhibit thymidine incorporation into DNA, provides a measure of cell proliferation.
# HL60 cells [9] = test system: HL60 cells
compound,measurement,setting,value
"Cc1cc2c(cc1C(=O)c1ccc(C(=O)O)cc1)C(C)(C)CCC2(C)C [3-methyl-TTNCB, 4-[(3,5,5,8,8-pentamethyl-5,6,7,8-tetrahydro-2-naphthyl)carbonyl]benzoic acid]",Inhibition of the utriculi diameter,Rhino mice utriculi,approximately 50%
same,"Reporter activation via apoA1 ""A"" site with RXR",RXR,activation in the system
same,Activation of members of the RAR subfamily,[1],no significant activity for members of the RAR subfamily
same,Skin irritation,skin of Rhino mice,less irritating to the skin of Rhino mice than 9-cis- or all-trans-retinoic acid
same,"Reporter activation via apoA1 ""A"" site with RAR",RAR,no effect when RAR was used in the transfection
"C=C(c1ccc(C(=O)O)cc1)c1cc2c(cc1C)C(C)(C)CCC2(C)C [3-methyl-TTNEB, 4-[1-(3,5,5,8,8-pentamethyl-5,6,7,8-tetrahydro-2-naphthyl)ethenyl]benzoic acid]",Induction of transglutaminase activity,[2],induce transglutaminase activity in the HL60 cells
same,Normalized Response (%),RXRα/PPAR,90%
same,HDL levels,"[3]; 100 mg/kg i.p., 4 days",substantial and statistically significant increases in HDL levels
same,Development of tolerance to pharmacological action,"[3]; 30 day p.o. study, 10, 30, or 100 mg/kg",did not indicate development of tolerance
same,Total cholesterol,[3]; four days,showed an increase due to the increase of the HDL-cholesterol fraction
same,Triglycerides,[3]; four days,either no change or a slight decrease
same,Lowest dose with significant increase of HDL-cholesterol,"[3]; i.p., four days",0.3 mg/kg
same,Increase of plasma HDL-cholesterol,[3]; optimally efficacious dose,greater than 60%
same,Circulating apoA1 level,apoA1,significant increase in circulating apoA1 level
same,Effect on cell growth,[4],inhibit cell growth in a concentration-dependent manner
same,Induction of differentiation (NBT reduction),HL60 cells [5]; HL60,not to induce undue differentiation
same,EC50,"HL60 cells [5]; HL-60, read-out: EC50 for mediated differentiation",> 1000 µM
same,Effect on cell growth,[6],inhibit cell growth in a concentration-dependent manner
CC1=C(/C=C/C(C)=C\C=C\C(C)=C\C(=O)O)C(C)(C)CCC1 [9-cis-retinoic acid],Efficacy,RXRβ; maximal response relative to all-trans-retinoic acid at 10^−5 M,140%
same,Activation of members of the RXR subfamily,[7],activate members of both the RAR and RXR subfamilies
same,Activation of members of the RAR subfamily,[1],activate members of both the RAR and RXR subfamilies
"C=C(c1ccc2c(c1)C(C)(C)CCC2(C)C)c1ccc(C(=O)O)cn1 [Compound 56, 2-[1-(5,5,8,8-tetramethyl-5,6,7,8-tetrahydro-2-naphthyl)ethenyl]pyridine-5-carboxylic acid]",melting point,,173 °C
"C/C(=C\c1ccc(C(=O)O)cc1)c1ccc2c(c1)C(C)(C)CCC2(C)C [TTNPB, reference compound]",Emax,"RXRα; CV-1, read-out: Efficacy",< 5%
same,EC50,"RXRα; RXRα, CV-1 cells, luciferase reporter, 36 h, read-out: Potency",> 10 µM
same,EC50,RXRγ,> 10 µM
same,Emax at 10 µM,"RXRγ; CV-1, RXRγ, maximal response relative to all-trans-retinoic acid at 10^−5 M, read-out: Efficacy",< 5%
same,Emax at 10 µM,"RXRβ; CV-1, maximal response relative to all-trans-retinoic acid at 10^−5 M, read-out: Efficacy",< 5%
same,EC50,"RXRβ; CV-1 cells, luciferase reporter, 36 h, read-out: Potency",> 10 µM
same,inhibition at 10 pM,"[8]; Homo sapiens, RPMI-8226",9%
same,IC50,"[8]; Homo sapiens, RPMI 8226, FIG. 11, read-out: IC50, inhibition of thymidine incorporation",~0.05 nM
same,Concentration with essentially no effect on cell proliferation,"[8]; RPMI 8226, FIG. 11",less than 10^−11 M
CC1=C(/C=C/C(C)=C/C=C/C(C)=C/C(=O)O)C(C)(C)CCC1 [all-trans-retinoic acid],Activation of members of the RXR subfamily,[7],activate members of both the RAR and RXR subfamilies
same,Activation of members of the RAR subfamily,[1],activate members of both the RAR and RXR subfamilies
same,Effect on cellular proliferation (thymidine incorporation),HL60 cells [9],inhibits thymidine incorporation
same,EC50,"HL60 cells [5]; HL-60, HL60, NBT reduction, read-out: EC50 for mediated differentiation",2 µM
"CC(C)(Oc1ccc(Cl)cc1)C(=O)O [clofibric Acid, clofibric acid, reference compound]",Normalized Response (%),RXRα/PPAR,100%
